# “And” between values parts separate entries of the source, which are not always exact repeats. Equal values may be shown once. Inconclusive results and toxic doses are left out. Peptide text beside a SMILES is read from it. * marks the point of attachment. Trt = c1ccc(C(c2ccccc2)(c2ccccc2)*)cc1; Cbz = O=C(OCc1ccccc1)*; NHNH2 = NN*
# Tested on: L1210 leukemia ip in BDF1 mice, survival T/C
# Assay: NCI In Vivo Anticancer Drug Screen. Data for tumor model L1210 Leukemia (intraperitoneal) in B6D2F1 (BDF1) mice
# Conditions: endpoint: mean survival time, higher = longer survival
# How it was run: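 Each compound was tested against a transplantable tumor grown in mice. The endpoint was survival, with treated animals benchmarked against vehicle controls as a simple ratio.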
# [1] = dose: 100.0 mg/kg/injection, schedule: Q04DX002 (ip), vehicle: Klucel (hydroxypropylcellulose) (HPC)
# [2] = dose: 200.0 mg/kg/injection, schedule: Q04DX002 (ip), vehicle: Klucel (hydroxypropylcellulose) (HPC)
# [3] = dose: 400.0 mg/kg/injection, schedule: Q04DX002 (ip), vehicle: Klucel (hydroxypropylcellulose) (HPC)
# [4] = dose: 100.0 mg/kg/injection, schedule: Q01DX009 (ip), vehicle: saline with Tween-80
# [5] = dose: 200.0 mg/kg/injection, schedule: Q01DX009 (ip), vehicle: saline with Tween-80
# [6] = dose: 400.0 mg/kg/injection, schedule: Q01DX009 (ip), vehicle: saline with Tween-80
# [7] = dose: 75.0 mg/kg/injection, schedule: Q01DX001 (ip), vehicle: saline
# [8] = dose: 150.0 mg/kg/injection, schedule: Q01DX001 (ip), vehicle: saline
# [9] = dose: 100.0 mg/kg/injection, schedule: Q01DX009 (ip), vehicle: Klucel (hydroxypropylcellulose) (HPC)
# [10] = dose: 200.0 mg/kg/injection, schedule: Q01DX009 (ip), vehicle: Klucel (hydroxypropylcellulose) (HPC)
# [11] = dose: 400.0 mg/kg/injection, schedule: Q01DX009 (ip), vehicle: Klucel (hydroxypropylcellulose) (HPC)
# [12] = dose: 100.0 mg/kg/injection, schedule: Q04DX003 (ip), vehicle: Klucel (hydroxypropylcellulose) (HPC)
# [13] = dose: 200.0 mg/kg/injection, schedule: Q04DX003 (ip), vehicle: Klucel (hydroxypropylcellulose) (HPC)
# [14] = dose: 400.0 mg/kg/injection, schedule: Q04DX003 (ip), vehicle: Klucel (hydroxypropylcellulose) (HPC)
smiles,measurement,setting,value
O=C(CC(C#Cc1ccccc1)c1ccccc1)c1ccccc1 (centres undefined),T/C,"dose: 75.0 mg/kg/injection, schedule: Q04DX003 (ip), vehicle: Klucel (hydroxypropylcellulose) (HPC)",97 % of control
same,T/C,"dose: 150.0 mg/kg/injection, schedule: Q04DX003 (ip), vehicle: Klucel (hydroxypropylcellulose) (HPC)",101 % of control
same,T/C,"dose: 300.0 mg/kg/injection, schedule: Q04DX003 (ip), vehicle: Klucel (hydroxypropylcellulose) (HPC)",94 % of control
Nc1c(Br)cccc1Br,T/C,"dose: 50.0 mg/kg/injection, schedule: Q01DX001 (ip), vehicle: saline",101 % of control
same,T/C,"dose: 100.0 mg/kg/injection, schedule: Q01DX001 (ip), vehicle: saline",109 % of control
same,T/C,"dose: 200.0 mg/kg/injection, schedule: Q01DX001 (ip), vehicle: saline",103 % of control
same,T/C,"dose: 400.0 mg/kg/injection, schedule: Q01DX001 (ip), vehicle: saline",97 % of control
CCc1cc2oc(C)c(C)c2c2nc(C)oc12,T/C,"dose: 50.0 mg/kg/injection, schedule: Q04DX002 (ip), vehicle: Klucel (hydroxypropylcellulose) (HPC)",101 % of control
same,T/C,[1],99 % of control and 104 % of control
same,T/C,[2],101 % of control
same,T/C,[3],96 % of control
CC1(C)c2ccccc2C(C)(O)c2ccccc21,T/C,[4],96 % of control
same,T/C,"dose: 100.0 mg/kg/injection, schedule: Q04DX003 (ip), vehicle: other",104 % of control
same,T/C,[5],93 % of control
same,T/C,"dose: 200.0 mg/kg/injection, schedule: Q04DX003 (ip), vehicle: other",94 % of control
same,T/C,[6],93 % of control
same,T/C,"dose: 400.0 mg/kg/injection, schedule: Q04DX003 (ip), vehicle: other",107 % of control
COc1ccc(Nc2cccc(Cl)c2)c(C(=O)O)c1,T/C,"dose: 40.0 mg/kg/injection, schedule: Q01DX009 (ip), vehicle: saline",100 % of control
same,T/C,[7],98 % of control
same,T/C,"dose: 75.0 mg/kg/injection, schedule: Q01DX009 (ip), vehicle: saline",87 % of control
same,T/C,[8],90 % of control
same,T/C,"dose: 150.0 mg/kg/injection, schedule: Q01DX009 (ip), vehicle: saline",87 % of control
C#CC(C)(C)OCC(CCl)OC(N)=O (centres undefined),T/C,"dose: 50.0 mg/kg/injection, schedule: Q04DX003 (ip), vehicle: saline",98 % of control
same,T/C,"dose: 100.0 mg/kg/injection, schedule: Q04DX003 (ip), vehicle: saline",96 % of control
same,T/C,"dose: 200.0 mg/kg/injection, schedule: Q04DX003 (ip), vehicle: saline",101 % of control
same,T/C,"dose: 400.0 mg/kg/injection, schedule: Q04DX003 (ip), vehicle: saline",104 % of control
CCCCCCCCOP(=O)(N1CC1)N1CC1,T/C,"dose: 1.0 mg/kg/injection, schedule: Q01DX015 (ip), vehicle: saline",94 % of control
same,T/C,"dose: 2.0 mg/kg/injection, schedule: Q01DX015 (ip), vehicle: saline",95 % of control
same,T/C,"dose: 4.0 mg/kg/injection, schedule: Q01DX015 (ip), vehicle: saline",97 % of control
same,T/C,"dose: 8.0 mg/kg/injection, schedule: Q01DX001 (ip), vehicle: saline",119 % of control
same,T/C,"dose: 8.2 mg/kg/injection, schedule: Q01DX015 (ip), vehicle: saline",163 % of control
same,T/C,"dose: 10.5 mg/kg/injection, schedule: Q01DX015 (ip), vehicle: saline",165 % of control and 166 % of control
same,T/C,"dose: 12.4 mg/kg/injection, schedule: Q01DX015 (ip), vehicle: saline",204 % of control
same,T/C,"dose: 16.0 mg/kg/injection, schedule: Q01DX015 (ip), vehicle: saline",209 % of control
same,T/C,"dose: 18.0 mg/kg/injection, schedule: Q01DX015 (ip), vehicle: saline",235 % of control
same,T/C,"dose: 18.6 mg/kg/injection, schedule: Q01DX015 (ip), vehicle: saline",214 % of control
same,T/C,"dose: 28.0 mg/kg/injection, schedule: Q01DX001 (ip), vehicle: saline",153 % of control
same,T/C,"dose: 33.5 mg/kg/injection, schedule: Q01DX015 (ip), vehicle: saline",207 % of control
same,T/C,"dose: 44.4 mg/kg/injection, schedule: Q01DX001 (ip), vehicle: saline",150 % of control
same,T/C,"dose: 50.0 mg/kg/injection, schedule: Q01DX015 (ip), vehicle: saline",92 % of control
same,T/C,"dose: 66.7 mg/kg/injection, schedule: Q01DX001 (ip), vehicle: saline",157 % of control and 170 % of control
same,T/C,[8],213 % of control
COC(=O)c1ccc(C(=O)O)nc1,T/C,[9],104 % of control
same,T/C,[10],94 % of control
same,T/C,[11],102 % of control
ONc1ccc(Cl)cc1,T/C,"dose: 6.25 mg/kg/injection, schedule: Q01DX009 (ip), vehicle: gum acacia",105 % of control
same,T/C,"dose: 12.5 mg/kg/injection, schedule: Q01DX001 (ip), vehicle: gum acacia",104 % of control
same,T/C,"dose: 12.5 mg/kg/injection, schedule: Q01DX009 (ip), vehicle: gum acacia",100 % of control
same,T/C,"dose: 12.5 mg/kg/injection, schedule: Q04DX003 (ip), vehicle: gum acacia",100 % of control
same,T/C,"dose: 25.0 mg/kg/injection, schedule: Q01DX001 (ip), vehicle: gum acacia",104 % of control
same,T/C,"dose: 25.0 mg/kg/injection, schedule: Q04DX003 (ip), vehicle: gum acacia",98 % of control
same,T/C,"dose: 50.0 mg/kg/injection, schedule: Q01DX001 (ip), vehicle: gum acacia",100 % of control
[O-][N+](=Nc1ccc(Br)cc1)c1ccc(Br)cc1,T/C,[1],95 % of control
same,T/C,[2],100 % of control
same,T/C,[3],89 % of control
CCN(CC)C(C)C(=O)c1ccc2cc(Br)c3ccccc3c2c1 (centres undefined),T/C,"dose: 222.0 mg/kg/injection, schedule: Q01DX Z (ip), vehicle: methylcellulose (MC)",97 % of control
same,T/C,"dose: 333.0 mg/kg/injection, schedule: Q01DX Z (ip), vehicle: methylcellulose (MC)",104 % of control
same,T/C,"dose: 500.0 mg/kg/injection, schedule: Q01DX Z (ip), vehicle: methylcellulose (MC)",87 % of control
CCOC(=O)CNC(=O)C1OC(n2cnc3c(N)ncnc32)C2OC(C)(C)OC12 (centres undefined),T/C,"dose: 100.0 mg/kg/injection, schedule: Q01DX005 (ip), vehicle: saline",95 % of control
same,T/C,"dose: 200.0 mg/kg/injection, schedule: Q01DX005 (ip), vehicle: saline",92 % of control
COc1ccc(C(=O)NCCc2ccccc2)cc1,T/C,[12],96 % of control
same,T/C,[13],105 % of control
same,T/C,[14],104 % of control
COC(=O)C1OCOC2C(CO)OCOC12 (centres undefined),T/C,"dose: 100.0 mg/kg/injection, schedule: Q04DX002 (ip), vehicle: saline",91 % of control
same,T/C,"dose: 100.0 mg/kg/injection, schedule: Q04DX003 (ip), vehicle: saline with Tween-80",91 % of control
same,T/C,"dose: 200.0 mg/kg/injection, schedule: Q04DX002 (ip), vehicle: saline",117 % of control
same,T/C,"dose: 200.0 mg/kg/injection, schedule: Q04DX003 (ip), vehicle: saline with Tween-80",86 % of control
same,T/C,"dose: 400.0 mg/kg/injection, schedule: Q04DX002 (ip), vehicle: saline",106 % of control
c1ccc2c(c1)Nc1ccncc1S2,T/C,[4],95 % of control
same,T/C,[5],90 % of control
same,T/C,[6],101 % of control
COc1ccc(CCN2CC(=O)NC(=O)C2)cc1OC,T/C,"dose: 25.0 mg/kg/injection, schedule: Q01DX009 (ip), vehicle: Klucel (hydroxypropylcellulose) (HPC)",95 % of control
same,T/C,"dose: 25.0 mg/kg/injection, schedule: Q04DX003 (ip), vehicle: Klucel (hydroxypropylcellulose) (HPC)",104 % of control
same,T/C,"dose: 50.0 mg/kg/injection, schedule: Q01DX009 (ip), vehicle: Klucel (hydroxypropylcellulose) (HPC)",96 % of control
same,T/C,"dose: 50.0 mg/kg/injection, schedule: Q04DX003 (ip), vehicle: Klucel (hydroxypropylcellulose) (HPC)",104 % of control
same,T/C,[9],101 % of control
same,T/C,[12],101 % of control
same,T/C,[10],101 % of control
same,T/C,[13],101 % of control
same,T/C,[11],101 % of control
same,T/C,[14],109 % of control
O=c1c2ccccc2[nH]c2ncccc12,T/C,[1],96 % of control
same,T/C,[2],92 % of control
NNC(=O)C(Cc1ccc(O)cc1)NC(=O)C(CO)NC(=O)C(CSC(c1ccccc1)(c1ccccc1)c1ccccc1)NC(=O)OCc1ccccc1 (stereo not drawn) (Cbz-Cys(Trt)-Ser-Tyr-NHNH2; configuration not given here),T/C,[7],96 % of control
same,T/C,[8],96 % of control
same,T/C,"dose: 300.0 mg/kg/injection, schedule: Q01DX001 (ip), vehicle: saline",90 % of control
COc1cccc(N2C(=O)C3C(C2=O)C2(Cl)C(Cl)=C(Cl)C3(Cl)C2(Cl)Cl)c1 (centres undefined),T/C,[9],98 % of control
same,T/C,[10],94 % of control
same,T/C,[11],89 % of control
